Earlier results in EP1136875A2, “Small 3D emulsions with enhanced photographic response” (EASTMAN KODAK COMPANY, priority 2000, dated 2001).

Settings: value is for the conjugate acid of the printed base

Row | pKa's in water of the conjugate acids of some useful bases | SMILES
1 | 3.67 | CC(=O)NCC(=O)O [CH3–CO–NH–CH2–CO2^-]
2 | 4.65 | C[N+](C)(C)[O-] [(CH3)3N^+–O^-]
3 | 3.33 | CC(=O)S [CH3–COS^-]
